Results published in patent US9765039B2, “Biaryl derivatives as bromodomain inhibitors” (Zenith Epigenetics Ltd., priority 2012, dated 2017).

Legend:
Brd4 bromodomain 1 = biological target: T1, Brd4 bromodomain 1 (Homo sapiens, UniProt O60885); experiment: Inhibition of tetra-acetylated histone H4 binding to BET bromodomains (TR-FRET); design: key: Active: Compounds with an IC50 value less than 30 μM were deemed to be active.; Not Active: Compounds with an IC50 value less than 30 μM were deemed to be active; settings: first bromodomain of Brd4, tetra-acetylated histone H4 peptide
T1 construct: made in house; host or cells: E. coli BL21(DE3)
Outline: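 TR-FRET with N-terminally His-tagged bromodomains (200 nM, E. coli-expressed, Ni affinity and SEC-purified) and biotinylated tetra-acetylated histone H4 peptide (25–50 nM), detected with Eu-cryptate streptavidin and XL665 anti-His antibody. Buffer 30 mM HEPES pH 7.4, 320 mM KF, 0.08% BSA, 0.2% DMSO; 2 h RT. IC50 from decrease in 665/620 nm ratio.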

hIL-6 mRNA = experiment: Inhibition of hIL-6 mRNA transcription in LPS-stimulated U937 macrophages; assay type: cell-based, human; design: key: Active: Compounds with an IC50 value less than 30 μM are deemed to be active; settings: U937 differentiated into macrophages, 1 h pretreatment, lipopolysaccharide 3 h
Outline: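 U937 cells differentiated 3 days with 60 ng/mL PMA, pretreated 1 h with compound, then stimulated with […] E. coli LPS for 3 h at 37° C. hIL-6 mRNA quantified by one-step real-time RT-PCR, Ct normalised to internal control and expressed as fold induction relative to control.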

hApoA-1 mRNA = experiment: Up-regulation of hApoA-1 mRNA transcription in Huh7 cells; assay type: cell-based, human; design: key: Active: Compounds with an EC170 value less than 30 μM are deemed to be active.; Not Active: Compounds with an EC170 value less than 30 μM are deemed to be active; settings: 48 hrs treatment, ApoA-I mRNA
Outline: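 Huh7 cells plated 24 h before compound, then treated 48 h; mRNA isolated from lysates and ApoA-I quantified by one-step real-time PCR. Fold induction derived from Ct values relative to the matching DMSO control; EC170 reported as activity measure.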

Human AML MV-4-11 cells = experiment: Inhibition of cell proliferation in cancer cell lines (CellTiter Aqueous One); assay type: cell-based; design: key: Active: Compounds with an IC50 value less than 30 μM were deemed to be active.; Not Active: Compounds with an IC50 value less than 30 μM were deemed to be active; settings: 72 hours
Outline: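 Exponentially growing MV-4-11 cells were treated immediately with two-fold compound dilutions from 30 µM to 0.2 µM in triplicate for 72 h at 37 °C. Viability was read by MTS (CellTiter Aqueous One) absorbance at 490 nm after 3-4 h; % proliferation vs DMSO gave IC50.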

c-myc = experiment: Inhibition of c-myc expression in cancer cell lines (mRNA, real-time PCR); assay type: cell-based; design: key: Active: Compounds with an IC50 value less than 30 μM were deemed to be active; settings: Human AML MV4-11 cells, 3 hours
Outline: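 MV4-11 cells (2.5×10^4) exposed to compound or 0.1% DMSO for 3 h at 37° C, then lysed for mRNA isolation. c-myc and cyclophilin cDNAs co-amplified by duplex RT real-time PCR. IC50 from dose-response curve.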

IL-6 = experiment: In vivo efficacy in mouse endotoxemia model (IL-6); settings: C57/B16 mice; orally at 75 mg/kg; 4 hour challenge with LPS 0.5 mg/kg intraperitoneally
Protocol: Sub lethal doses of Endotoxin (E. coli bacterial lipopolysaccharide) were administered to animals to produce a generalized inflammatory response which was monitored by increases in secreted cytokines. Compounds were administered to C57/B16 mice orally at 75 mg/kg dose to evaluate inhibition in IL-6 and IL-17 cytokines post 4 hour challenge with Lipopolysaccharide (LPS) at 0.5 mg/kg dose intraperitoneally.

arthritic rats = experiment: In vivo efficacy in rat collagen induced arthritis; design: species or system female Lewis strain of rats; settings: collagen Day 1 and 7, dosed Day 11 to Day 17
Protocol: Rat collagen-induced arthritis is an experimental model of polyarthritis that has been widely used for preclinical testing of numerous anti-arthritic agents. Following administration of collagen, this model establishes a measurable polyarticular inflammation, marked cartilage destruction in association with pannus formation and mild to moderate bone resorption and periosteal bone proliferation. In this model, collagen was administered to female Lewis strain of rats on Day 1 and 7 of study and dosed with compounds from Day 11 to Day 17. Compounds were evaluated to assess the potential to inhibit the inflammation (including paw swelling), cartilage destruction and bone resorption in arthritic rats, using a model in which the treatment is administered after the disease has been established.

FRET activity (IC50 < 30 μM) (Brd4 bromodomain 1) | IL-6 activity (IC50 < 30 μM) (hIL-6 mRNA) | cell proliferation activity (IC50 < 30 μM) (Human AML MV-4-11 cells) | c-myc activity (IC50 < 30 μM) (c-myc) | melting point [°C] | SMILES | ApoA-1 Activity (EC170 < 30 μM) (hApoA-1 mRNA) | In vivo Activity (IL-6) (IL-6) | In vivo Activity (arthritic rats)
Active | Active | Active | Active | – | COc1cc(OC)c2c(=O)[nH]c(-c3ccc(OCCNC(C)C)c(-c4ccc(S(C)(=O)=O)cc4)n3)nc2c1 [Example 27, 2-(5-(2-(Isopropylamino)ethoxy)-6-(4-(methylsulfonyl)phenyl)pyridin-2-yl)-5,7-dimethoxyquinazolin-4(3H)-one] | Active | Active | –
Active | Active | Active | Active | 266 to 267 | COc1cc(OC)c2c(=O)[nH]c(-c3ccc(OC)c(-c4ccc([S+](C)[O-])cc4)n3)nc2c1 (stereo not shown) [Example 50, 5,7-Dimethoxy-2-(5-methoxy-6-(4-(methylsulfinyl)phenyl)pyridin-2-yl)quinazolin-4(3H)-one] | Active | – | Active
